# Experimental data from patent publication US12312419B2, “Hemiasterlin derivative having cysteine residue” (priority 2019, dated 2025).
# System: Karpas-299 cells
# Assay: Cellular toxicity test (1), CellTiter-Glo cell viability
# Type: cell-based, human
# Conditions: Homo sapiens, 96 h; Karpas-299; cultured 4 days; cell viability
# Experimental: Karpas-299 cells (European Collection of Authenticated Cell Cultures, hereinafter, ECACC), which are human lymphoma cell lines, were cultured in RPMI 1640 (GIBCO) containing 10% fetal bovine serum (MP Biomedicals) (hereinafter, referred to as the “culture medium”). Cells were prepared to be 2×10^5 cells/mL in the culture medium, and were added to a 96 well microplate for cell culturing in an amount of 50 μL for each well. Compounds of Examples or the Comparative Example compound 4 times diluted with the culture medium in 8 stages were added to the microplate in an amount of 50 μL for each well. These were cultured at 37° C. under 5% CO2 for 4 days. After culturing, the microplate was taken out from the incubator, and was left at rest at room temperature for 10 minutes. To each well, 50 μL of CellTiter-Glo Luminescent Cell Viability Assay (Promega) was added, and the resultant mixture was stirred. This mixture was incubated at a dark place for 20 minutes. Using a microplate luminometer, luminescence at each well was measured, thereby calculating the cell viability. From the value of the cell viability, the IC50 value was calculated.
# The IC50 value was calculated by the following formula: IC50(nM)=antilog(LOG10(a/b)×(e−d)/(c−d)+LOG10b) • a: concentration a of test substance • b: concentration b of test substance • c: cell viability upon adding test substance with concentration a • d: cell viability upon adding test substance with concentration b • e: intermediate value between maximum and minimum among cell viabilities upon adding test substances with different concentrations (a and b are concentrations crossing the cell viability e, and a>b is indicated).
# The cell viability at each concentration was calculated by the following formula: Cell Viability (%)=a′/b′×100 • a′: mean value of luminescence amount of wells to which test substance was added (n=6) • b′: mean value of luminescence amount of wells to which test substance was not added (n=6) • (n represents the number of evaluations performed per test substance concentration).
row,SMILES,IC50 [nM]
1,CN[C@H](C(=O)N[C@H](C(=O)N(C)[C@H](/C=C(\C)C(=O)N[C@H](CCC(=O)N[C@@H](CCCCNC(=O)CCCCCN1C(=O)CC(SC[C@H](N)C(=O)O)C1=O)C(=O)O)C(=O)O)C(C)C)C(C)(C)C)C(C)(C)c1cn(C)c2ccccc12 (stereo partly shown) [Example MM2],459
2,CN[C@H](C(=O)N[C@H](C(=O)N(C)[C@H](/C=C(\C)C(=O)N[C@H](CCC(=O)N[C@H](CCC(=O)NCCN1C(=O)CC(SC[C@H](N)C(=O)O)C1=O)C(=O)O)C(=O)O)C(C)C)C(C)(C)C)C(C)(C)c1cn(C)c2ccccc12 (stereo partly shown) [Example MM3],387
3,CN[C@H](C(=O)N[C@H](C(=O)N(C)[C@H](/C=C(\C)C(=O)N[C@H](CCC(=O)NCCN1C(=O)CC(SC[C@H](N)C(=O)O)C1=O)C(=O)O)C(C)C)C(C)(C)C)C(C)(C)c1cn(C)c2ccccc12 (stereo partly shown) [Example MM4],289
4,CN[C@H](C(=O)N[C@H](C(=O)N(C)[C@H](/C=C(\C)C(=O)NCCCC[C@@H](NC(=O)CCCN1C(=O)CC(SC[C@H](N)C(=O)O)C1=O)C(=O)O)C(C)C)C(C)(C)C)C(C)(C)c1cn(C)c2ccccc12 (stereo partly shown) [Example MM5],> 1000
5,CN[C@H](C(=O)N[C@H](C(=O)N(C)[C@H](/C=C(\C)C(=O)N[C@H](CCC(=O)N[C@H](CCC(=O)NCCN1C(=O)CC(SC[C@H](N)C(=O)O)C1=O)C(=O)O)C(=O)O)C(C)C)C(C)(C)C)C(C)(C)c1ccccc1 (stereo partly shown) [Example MM6],> 1000
6,CN[C@H](C(=O)N[C@H](C(=O)N(C)[C@H](/C=C(\C)C(=O)N[C@H](CCC(=O)N[C@H](CCC(=O)N[C@H](CCC(=O)NCCN1C(=O)CC(SC[C@H](N)C(=O)O)C1=O)C(=O)O)C(=O)O)C(=O)O)C(C)C)C(C)(C)C)C(C)(C)c1ccccc1 (stereo partly shown) [Example MM7],> 1000
7,CN[C@H](C(=O)N[C@H](C(=O)N(C)[C@H](/C=C(\C)C(=O)N[C@H](CC(=O)NCCN1C(=O)CC(SC[C@H](N)C(=O)O)C1=O)C(=O)O)C(C)C)C(C)(C)C)C(C)(C)c1ccccc1 (stereo partly shown) [Example MM9],> 1000
8,CN[C@H](C(=O)N[C@H](C(=O)N(C)[C@H](/C=C(\C)C(=O)N[C@@H](CC(=O)NCCN1C(=O)CC(SC[C@H](N)C(=O)O)C1=O)C(=O)O)C(C)C)C(C)(C)C)C(C)(C)c1ccccc1 (stereo partly shown) [Example MM10],> 1000
9,CN[C@H](C(=O)N[C@H](C(=O)N(C)[C@H](/C=C(\C)C(=O)N[C@H](CC(=O)O)C(=O)NCCN1C(=O)CC(SC[C@H](N)C(=O)O)C1=O)C(C)C)C(C)(C)C)C(C)(C)c1ccccc1 (stereo partly shown) [Example MM13],> 1000
10,CN[C@H](C(=O)N[C@H](C(=O)N(C)[C@H](/C=C(\C)C(=O)N[C@@H](CC(=O)O)C(=O)NCCN1C(=O)CC(SC[C@H](N)C(=O)O)C1=O)C(C)C)C(C)(C)C)C(C)(C)c1ccccc1 (stereo partly shown) [Example MM14],> 1000
11,CN[C@H](C(=O)N[C@H](C(=O)N(C)[C@H](/C=C(\C)C(=O)N[C@H](CCC(=O)NCCCN1C(=O)CC(SC[C@H](N)C(=O)O)C1=O)C(=O)O)C(C)C)C(C)(C)C)C(C)(C)c1ccccc1 (stereo partly shown) [Example MM16],867
12,CN[C@H](C(=O)N[C@H](C(=O)N(C)[C@H](/C=C(\C)C(=O)N[C@@H](CC(=O)NCCN1C(=O)CC(SC[C@H](N)C(=O)O)C1=O)C(=O)O)C(C)C)C(C)(C)C)C(C)(C)c1cn(C)c2ccccc12 (stereo partly shown) [Example MM19],303
13,CN[C@H](C(=O)N[C@H](C(=O)N(C)[C@H](/C=C(\C)C(=O)N[C@H](CC(=O)NCCN1C(=O)CC(SC[C@H](N)C(=O)O)C1=O)C(=O)O)C(C)C)C(C)(C)C)C(C)(C)c1cn(C)c2ccccc12 (stereo partly shown) [Example MM20],337
14,CN[C@H](C(=O)N[C@H](C(=O)N(C)[C@H](/C=C(\C)C(=O)N[C@@H](CC(=O)O)C(=O)NCCN1C(=O)CC(SC[C@H](N)C(=O)O)C1=O)C(C)C)C(C)(C)C)C(C)(C)c1cn(C)c2ccccc12 (stereo partly shown) [Example MM21],471
15,CN[C@H](C(=O)N[C@H](C(=O)N(C)[C@H](/C=C(\C)C(=O)N[C@@H](CCC(=O)O)C(=O)NCCN1C(=O)CC(SC[C@H](N)C(=O)O)C1=O)C(C)C)C(C)(C)C)C(C)(C)c1cn(C)c2ccccc12 (stereo partly shown) [Example MM22],740
16,CN[C@H](C(=O)N[C@H](C(=O)N(C)[C@H](/C=C(\C)C(=O)N[C@H](CC(=O)O)C(=O)NCCN1C(=O)CC(SC[C@H](N)C(=O)O)C1=O)C(C)C)C(C)(C)C)C(C)(C)c1cn(C)c2ccccc12 (stereo partly shown) [Example MM24],521
17,CN[C@H](C(=O)N[C@H](C(=O)N(C)[C@H](/C=C(\C)C(=O)N[C@H](CCC(=O)O)C(=O)NCCN1C(=O)CC(SC[C@H](N)C(=O)O)C1=O)C(C)C)C(C)(C)C)C(C)(C)c1cn(C)c2ccccc12 (stereo partly shown) [Example MM25],555
18,CN[C@H](C(=O)N[C@H](C(=O)N(C)[C@H](/C=C(\C)C(=O)N[C@H](CCC(=O)N[C@@H](CCCCNC(=O)CCN1C(=O)CC(SC[C@H](N)C(=O)O)C1=O)C(=O)O)C(=O)O)C(C)C)C(C)(C)C)C(C)(C)c1cn(C)c2ccc(F)cc12 (stereo partly shown) [Example MM26],384
19,CN[C@H](C(=O)N[C@H](C(=O)N(C)[C@H](/C=C(\C)C(=O)N[C@@H](CCCCNC(=O)CCCN1C(=O)CC(SC[C@H](N)C(=O)O)C1=O)C(=O)O)C(C)C)C(C)(C)C)C(C)(C)c1cn(C)c2ccccc12 (stereo partly shown) [Example MM27],> 1000
20,C/C(=C\[C@H](C(C)C)N(C)C(=O)[C@@H](NC(=O)[C@H]1CCCCN1C(=O)CCN1C(=O)CC(SC[C@H](N)C(=O)O)C1=O)C(C)(C)C)C(=O)N[C@H](CCC(=O)O)C(=O)O (stereo partly shown) [Example MM29],> 1000
21,CN[C@H](C(=O)N[C@H](C(=O)N(C)[C@H](/C=C(\C)C(=O)N[C@H](CCC(=O)NCCN1C(=O)CC(SC[C@H](N)C(=O)O)C1=O)C(=O)O)C(C)C)C(C)(C)C)C(C)(C)c1cccc(F)c1 (stereo partly shown) [Example MM31],> 1000
22,CNC(C(=O)N[C@H](C(=O)N(C)[C@H](/C=C(\C)C(=O)N[C@H](CCC(=O)NCCN1C(=O)CC(SC[C@H](N)C(=O)O)C1=O)C(=O)O)C(C)C)C(C)(C)C)C(C)(C)c1ccc(O)cc1 (stereo partly shown) [Example MM33],36
23,CN[C@H](C(=O)N[C@H](C(=O)N(C)[C@H](/C=C(\C)C(=O)N[C@H](CCC(=O)NCCN1C(=O)CC(SC[C@H](N)C(=O)O)C1=O)C(=O)O)C(C)C)C(C)(C)C)C(C)(C)c1ccc(C(=O)O)cc1 (stereo partly shown) [Example MM35],> 1000
24,CN[C@H](C(=O)N[C@H](C(=O)N(C)[C@H](/C=C(\C)C(=O)N[C@H](CCC(=O)NCCN1C(=O)CC(SC[C@H](N)C(=O)O)C1=O)C(=O)O)C(C)C)C(C)(C)C)C(C)(C)c1cccc(OC)c1 (stereo partly shown) [Example MM36],> 1000
25,CN[C@H](C(=O)N[C@H](C(=O)N(C)[C@H](/C=C(\C)C(=O)N[C@H](CCC(=O)NCCN1C(=O)CC(SC[C@H](N)C(=O)O)C1=O)C(=O)O)C(C)C)C(C)(C)C)C(C)(C)c1cc(C)cc(C)c1 (stereo partly shown) [Example MM37],> 1000
26,CN[C@H](C(=O)N[C@H](C(=O)N(C)[C@H](/C=C(\C)C(=O)N[C@H](CCC(=O)NCCN1C(=O)CC(SC[C@H](N)C(=O)O)C1=O)C(=O)O)C(C)C)C(C)(C)C)C(C)(C)c1ccc2ccccc2c1 (stereo partly shown) [Example MM38],726
27,CN[C@H](C(=O)N[C@H](C(=O)N(C)[C@H](/C=C(\C)C(=O)N[C@H](CCC(=O)NCCN1C(=O)CC(SC[C@H](N)C(=O)O)C1=O)C(=O)O)C(C)C)C(C)(C)C)C(C)(C)c1cccc(-c2ccccc2)c1 (stereo partly shown) [Example MM39],118
28,CN[C@H](C(=O)N[C@H](C(=O)N(C)[C@H](/C=C(\C)C(=O)N[C@H](CCC(=O)NCCN1C(=O)CC(SC[C@H](N)C(=O)O)C1=O)C(=O)O)C(C)C)C(C)(C)C)C(C)(C)c1cccc(C)c1 (stereo partly shown) [Example MM40],146
29,CNC(C(=O)N[C@H](C(=O)N(C)[C@H](/C=C(\C)C(=O)N[C@H](CCC(=O)O)C(=O)O)C(C)C)C(C)(C)C)C(C)(C)c1ccc(C(=O)NCCN2C(=O)CC(SC[C@H](N)C(=O)O)C2=O)cc1 (stereo partly shown) [Example MM43],> 1000
30,C/C(=C\[C@H](C(C)C)N(C)C(=O)[C@@H](NC(=O)[C@@H](NC(=O)CCCCCN1C(=O)CC(SC[C@H](N)C(=O)O)C1=O)C(C)(C)c1cn(C)c2ccccc12)C(C)(C)C)C(=O)N[C@H](CCC(=O)O)C(=O)O (stereo partly shown) [Example MM44],> 1000

# Same assay, conditions: in words, summary of Table 17
row,SMILES,cellular toxicity to Karpas-299 cells
1,"CN[C@H](C(=O)N[C@H](C(=O)N(C)[C@H](/C=C(\C)C(=O)NCCCCNC(=O)CCCCCN1C(=O)CC(SC[C@H](N)C(=O)O)C1=O)C(C)C)C(C)(C)C)C(C)(C)c1cn(C)c2ccccc12 (stereo partly shown) [Comparative Example compound, reference compound]",strong cellular toxicity
